# Source: patent EP2970215B1, “PYRROLIDINE DERIVATIVES, PHARMACEUTICAL COMPOSITIONS CONTAINING THEM, AND THEIR USE IN THERAPY” (AbbVie Deutschland GmbH & Co. KG, priority 2013, dated 2014)
# Target: T1, human GlyT1c transporter (Homo sapiens, UniProt P48067)
# T1 construct: expressed in transfected cells; host or cells: CHO cells (recombinant; line hGlyT1c_5_CHO is named for the uptake assay)
# T1 sequence (P48067 1-706): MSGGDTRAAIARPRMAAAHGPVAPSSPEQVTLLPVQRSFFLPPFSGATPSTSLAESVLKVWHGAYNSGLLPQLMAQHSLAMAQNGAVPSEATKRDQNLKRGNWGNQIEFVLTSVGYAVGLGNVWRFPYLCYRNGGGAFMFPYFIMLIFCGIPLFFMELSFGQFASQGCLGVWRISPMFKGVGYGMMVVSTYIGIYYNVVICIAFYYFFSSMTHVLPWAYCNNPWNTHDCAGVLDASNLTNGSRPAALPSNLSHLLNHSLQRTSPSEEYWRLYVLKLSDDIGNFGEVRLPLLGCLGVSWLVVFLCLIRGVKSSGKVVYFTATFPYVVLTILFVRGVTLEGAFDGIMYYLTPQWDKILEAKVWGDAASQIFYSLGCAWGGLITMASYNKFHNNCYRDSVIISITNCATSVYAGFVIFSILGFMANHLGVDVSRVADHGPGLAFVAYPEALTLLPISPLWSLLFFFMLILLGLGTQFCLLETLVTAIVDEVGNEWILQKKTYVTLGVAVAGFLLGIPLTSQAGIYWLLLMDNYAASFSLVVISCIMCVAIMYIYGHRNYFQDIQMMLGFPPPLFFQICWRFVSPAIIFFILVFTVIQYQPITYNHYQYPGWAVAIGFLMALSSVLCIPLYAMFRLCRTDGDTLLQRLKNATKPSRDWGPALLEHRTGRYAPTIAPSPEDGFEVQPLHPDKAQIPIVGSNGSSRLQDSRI
# Assay: Radioligand binding assay using recombinant CHO cell membranes expressing human GlyT1
# Conditions: radioligand binding to human GlyT1c transporter-expressing membranes
# Source text: 2. Radioligand binding assays using recombinant CHO cell membranes expressing human GlyT1: […]
row,Structure (SMILES),Ki [µM]
1,"Cn1cnc(S(=O)(=O)N2C[C@@H](CNc3cccc(C(N)=O)c3)[C@H](c3ccc(F)cc3)C2)c1 (relative stereo) [Example 364, 3-[({Trans-4-(4-fluorophenyl)-1-[(1-methyl-1H-imidazol-4-yl)sulfonyl]pyrrolidin-3-yl}methyl)amino]benzamide]",≤ 10
2,"Cn1cnc(S(=O)(=O)N2C[C@H](NCCC3CC3)[C@@H](c3ccccc3)C2)c1 [Example 545, (3R,4S)-N-(2-cyclopropylethyl)-1-[(1-methyl-1H-imidazol-4-yl)sulfonyl]-4-phenylpyrrolidin-3-amine]",≤ 1
3,"Cc1ncsc1CN[C@H]1CN(S(=O)(=O)c2cn(C)cn2)C[C@@H]1c1ccccc1 [Example 434, (3R,4S)-1-[(1-methyl-1H-imidazol-4-yl)sulfonyl]-N-[(4-methyl-1,3-thiazol-5-yl)methyl]-4-phenylpyrrolidin-3-amine]",≤ 10
4,"Cn1cnc(S(=O)(=O)N2C[C@@H](C(=O)Nc3ccc(C(F)(F)F)cc3)[C@H](c3ccc(F)cc3)C2)c1 (relative stereo) [Example 243, Trans-4-(4-fluorophenyl)-1-[(1-methyl-1H-imidazol-4-yl)sulfonyl]-N-[4-(trifluoromethyl)phenyl]pyrrolidine-3-carboxamide]",≤ 1
5,"Cn1cnc(S(=O)(=O)N2C[C@@H](COc3ccnc(C(F)(F)F)c3)[C@H](c3ccc(F)cc3)C2)c1 (relative stereo) [Example 366, 4-({Trans-4-(4-fluorophenyl)-1-[(1-methyl-1H-imidazol-4-yl)sulfonyl]pyrrolidin-3-yl}methoxy)-2-(trifluoromethyl)pyridine]",≤ 0.1
6,"Cn1cnc(S(=O)(=O)N2C[C@@H](Nc3ccc(Cl)c(F)c3)[C@H](c3cccc(F)c3)C2)c1 (relative stereo) [Example 193, trans-N-(4-chloro-3-fluorophenyl)-4-(3-fluorophenyl)-1-[(1-methyl-1H-imidazol-4-yl)sulfonyl]pyrrolidin-3-amine]",≤ 10
7,"Cn1cnc(S(=O)(=O)N2C[C@@H](Nc3ccc(Cl)c(Cl)c3)[C@H](c3ccccc3)C2)c1 (relative stereo) [Example 218, trans-N-(3,4-dichlorophenyl)-1-[(1-methyl-1H-imidazol-4-yl)sulfonyl]-4-phenylpyrrolidin-3-amine]",≤ 1
8,"Cn1cnc(S(=O)(=O)N2C[C@H](Nc3ccc(C#N)c(C(F)(F)F)c3)[C@@H](c3ccc(F)cc3)C2)c1 [Example 639, 4-({(3R,4S)-4-(4-fluorophenyl)-1-[(1-methyl-1H-imidazol-4-yl)sulfonyl]pyrrolidin-3-yl}amino)-2-(trifluoromethyl)benzonitrile]",≤ 10
9,"Cn1cnc(S(=O)(=O)N2C[C@@H](NCc3ccccc3)[C@H](c3ccc(F)cc3)C2)c1 (relative stereo) [Example 148, trans-N-benzyl-4-(4-fluorophenyl)-1-[(1-methyl-1H-imidazol-4-yl)sulfonyl]pyrrolidin-3-amine]",≤ 10
10,"Cn1cnc(S(=O)(=O)N2CC(Nc3ccc(F)c(C(F)F)c3)C(c3ccc(F)cc3)C2)c1 (stereo not drawn) [Example 310, N-[3-(difluoromethyl)-4-fluorophenyl]-4-(4-fluorophenyl)-1-[(1-methyl-1H-imidazol-4-yl)sulfonyl]pyrrolidin-3-amine]",≤ 0.1
11,"COc1cccc(C(=O)N[C@@H]2CN(S(=O)(=O)c3cn(C)cn3)C[C@H]2c2ccccc2)c1 (relative stereo) [Example 21, 3-methoxy-N-{trans-1-[(1-methyl-1H-imidazol-4-yl)sulfonyl]-4-phenylpyrrolidin-3-yl}benzamide]",≤ 10
12,"Cn1cnc(S(=O)(=O)N2C[C@@H](Nc3ccc(F)c(F)c3)[C@H](c3ccc(F)cc3)C2)c1 (relative stereo) [Example 158, trans-N-(3,4-difluorophenyl)-4-(4-fluorophenyl)-1-[(1-methyl-1H-imidazol-4-yl)sulfonyl]pyrrolidin-3-amine]",≤ 0.1
13,"Cn1cnc(S(=O)(=O)N2C[C@@H]([C@@H]3CCCOC3)[C@H](Nc3ccc(F)c(Cl)c3)C2)c1 (mixture of isomers) [Example 789, Trans-N-(3-chloro-4-fluorophenyl)-1-[(1-methyl-1H-imidazol-4-yl)sulfonyl]-4-[(3S)-tetrahydro-2H-pyran-3-yl]pyrrolidin-3-amine]",≤ 1
14,"Cn1cnc(S(=O)(=O)N2C[C@H](Nc3ccc4c(c3)C(C)(C)CCO4)[C@@H](c3ccc(F)cc3)C2)c1 [Example 672, (3R,4S)-N-(4,4-dimethyl-3,4-dihydro-2H-chromen-6-yl)-4-(4-fluorophenyl)-1-[(1-methyl-1H-imidazol-4-yl)sulfonyl]pyrrolidin-3-amine]",≤ 1
15,"Cn1cnc(S(=O)(=O)N2C[C@@H](Nc3cccc(F)c3)[C@H](c3ccccc3Cl)C2)c1 (relative stereo) [Example 252, trans-4-(2-chlorophenyl)-N-(3-fluorophenyl)-1-[(1-methyl-1H-imidazol-4-yl)sulfonyl]pyrrolidin-3-amine]",≤ 1
16,"CCC/C=C/CN[C@H]1CN(S(=O)(=O)c2cn(C)cn2)C[C@@H]1c1ccccc1 [Example 547, (3R,4S)-N-[(2E)-hex-2-en-1-yl]-1-[(1-methyl-1H-imidazol-4-yl)sulfonyl]-4-phenylpyrrolidin-3-amine]",≤ 0.1
17,"Cn1cnc(S(=O)(=O)N2C[C@@H](NCc3ccc(F)cc3)[C@H](c3ccc(F)cc3)C2)c1 (relative stereo) [Example 156, trans-N-(4-fluorobenzyl)-4-(4-fluorophenyl)-1-[(1-methyl-1H-imidazol-4-yl)sulfonyl]pyrrolidin-3-amine]",≤ 0.1
18,"Cn1cnc(S(=O)(=O)N2CC(Nc3cccc(OC(F)(F)F)c3)C(C3CCN(C4CC4)CC3)C2)c1 (stereo not drawn) [Example 678, -4-(1-cyclopropylpiperidin-4-yl)-1-[(1-methyl-1H-imidazol-4-yl)sulfonyl]-N-[3-(trifluoromethoxy)phenyl]pyrrolidin-3-amine]",≤ 1
19,"Cn1cnc(S(=O)(=O)N2C[C@H](Nc3ccc(F)cc3)[C@@H](c3ccc(F)cc3)C2)c1 [Example 330, (3R,4S)-N,4-bis(4-fluorophenyl)-1-[(1-methyl-1H-imidazol-4-yl)sulfonyl]pyrrolidin-3-amine]",≤ 0.1
20,"Cn1cnc(S(=O)(=O)N2C[C@@H](NCc3ccc(Cl)cc3Cl)[C@H](c3ccccn3)C2)c1 (relative stereo) [Example 307, trans-N-(2,4-dichlorobenzyl)-1-[(1-methyl-1H-imidazol-4-yl)sulfonyl]-4-(pyridin-2-yl)pyrrolidin-3-amine]",≤ 0.1
21,"Cc1ccc(N[C@@H]2CN(S(=O)(=O)c3cn(C)cn3)C[C@H]2c2ccc(F)cc2)cc1 (relative stereo) [Example 86, trans-4-(4-fluorophenyl)-1-[(1-methyl-1H-imidazol-4-yl)sulfonyl]-N-(4-methylphenyl)pyrrolidin-3-amine]",≤ 1
22,"COCC(C)NC(=O)[C@@H]1CN(S(=O)(=O)c2cn(C)cn2)C[C@H]1c1ccc(F)cc1 (stereo partly drawn) [Example 582, (3S,4R)-4-(4-fluorophenyl)-N-[1-methoxypropan-2-yl]-1-[(1-methyl-1H-imidazol-4-yl)sulfonyl]pyrrolidine-3-carboxamide]",≤ 10
23,"Cn1cnc(S(=O)(=O)N2C[C@H](Nc3cccc(OCC(F)(F)F)c3)[C@@H](c3ccc(F)cc3)C2)c1 [Example 744, (3R,4S)-4-(4-fluorophenyl)-1-[(1-methyl-1H-imidazol-4-yl)sulfonyl]-N-[3-(2,2,2-trifluoroethoxy)phenyl]pyrrolidin-3-amine]",≤ 0.01
24,"Cn1cnc(S(=O)(=O)N2C[C@@H](Nc3ccncc3)[C@H](c3ccccc3)C2)c1 (relative stereo) [Example 209, N-{trans-1-[(1-methyl-1H-imidazol-4-yl)sulfonyl]-4-phenylpyrrolidin-3-yl}pyridin-4-amine]",≤ 10

# Same assay, conditions: radioligand binding, recombinant CHO cell membranes expressing human GlyT1c
row,Structure (SMILES),Ki [µM]
1,"Cn1cnc(S(=O)(=O)N2C[C@@H](Nc3cccc(C(F)(F)F)c3)[C@H](C3CCOC3)C2)c1 (relative stereo) [Example 827, trans-1-[(1-methyl-1H-imidazol-4-yl)sulfonyl]-4-(tetrahydrofuran-3-yl)-N-[3 - (trifluoromethyl)phenyl]pyrrolidin-3-amine]",≤ 1
2,"Cn1cnc(S(=O)(=O)N2C[C@@H](Nc3ccc(F)c(C(F)(F)F)c3)[C@H](C3CCCCO3)C2)c1 (relative stereo) [Example 846, Trans-N-[4-fluoro-3-(trifluoromethyl)phenyl]-1-[(1-methyl-1H-imidazol-4-yl)sulfonyl]-4-(tetrahydro-2H-pyran-2-yl)pyrrolidin-3-amine]",≤ 0.1
3,"Cn1cnc(S(=O)(=O)N2C[C@@H](Nc3ccc(F)c(OC(F)(F)F)c3)[C@H](C3CCOC3)C2)c1 (relative stereo) [Example 831, trans -N-[4-fluoro-3-(trifluoromethoxy)phenyl]-1-[(1-methyl-1 H-imidazol-4-yl)sulfonyl] -4-(tetrahydrofuran-3-yl)pyrrolidin-3-amine]",≤ 1
